Results: US20160316790A1, “BETA-HINOKITIOL DERIVATIVES AND APPLICATIONS THEREOF IN PREPARATION OF ANIMAL ANTIBACTERIAL AGENTS AND ANTIBACTERIAL GROWTH PROMOTERS USED IN FEED” (GUANGZHOU INSIGHTER BIOTECHNOLOGY CO., LTD., priority 2013, published 2016)
Values after ≈ are worked out from the molar mass of the structure shown. Values joined by “and” are separate entries in the source; they are usually repeats but may differ in a detail not shown here. Equal values may be shown once. Read-outs that look alike come from different tables or passages of the source.

Columns and labels:
[1] = tested on: riemerella anatipestifer; experiment: Protection effect against attacking and infection of riemerella anatipestifer; settings: ducks, 5 × 10^7 CFU/bird, 7 days
[2] = tested on: clostridium perfringens; experiment: microbe, parasite or virus in culture; format: cell-based
[3] = tested on: streptococcus; experiment: Minimum inhibitory concentration in vitro, doubling dilutions; format: cell-based
[4] = tested on: vibrio; experiment: as above; format: cell-based
[5] = tested on: salmonellas; experiment: as above; format: cell-based
[6] = tested on: haemophilus parasuis; experiment: as above; format: cell-based; settings: Glaesserella parasuis
[7] = tested on: escherichia coli; experiment: as above; format: cell-based
[8] = tested on: riemerella anatipestifer; experiment: as above; format: cell-based
[9] = Effect of β-hinokitiol derivatives on diarrhea of weaned pigs; format: in vivo; settings: for Average daily diarrhea rate: 30 ppm in diet
From the text: 80 25-day-old weaned pigs were randomly divided into eight groups according to table 7, 10 pigs in each group. […] During the testing, the pigs ate food and drank water freely with temperature preservation. The test lasted for 10 days.

[10] = Application effect test of β-hinokitiol derivatives in broiler feeds; format: in vivo, fast-grown type yellow feather broilers; settings: 14 days; for Average daily weight gain / Average weight gain / Total consumption / feed conversion efficiency: broilers
From the text: 598 fast-grown type yellow feather broilers (female) aged 30-days were divided into five groups according to table 5. […] During the test, the broilers ate food and drank water freely. The test lasted for 14 days. […] [table]

[11] = tested on: staphylococcus aureus; experiment: Minimum inhibitory concentration in vitro, doubling dilutions; format: cell-based
[12] = tested on: major animal pathogenic bacteria; experiment: In vitro antibacterial activity (MICs), overall statement; format: cell-based; settings: Tables 1 to 4
[13] = read-out: Minimum inhibitory concentration (MIC), Clostridium JM1210B
[14] = read-out: Minimum inhibitory concentration (MIC), Clostridium JM1212A
[15] = strain KP1307-1, read-out: Minimum inhibitory concentration (MIC), Streptococcus KP1307-1
[16] = strain TS1205-2, read-out: Minimum inhibitory concentration (MIC), Streptococcus TS1205-2
[17] = read-out: Minimum inhibitory concentration (MIC), Vibrio VP3
[18] = read-out: Minimum inhibitory concentration (MIC), Vibrio VP5
[19] = strain FS1303B, read-out: Minimum inhibitory concentration (MIC), Salmonellas FS1303B
[20] = strain GD1303-3, read-out: Minimum inhibitory concentration (MIC), Salmonellas GD1303-3
[21] = strain 2-3A, read-out: Minimum inhibitory concentration (MIC), Haemophilus parasuis 2-3A
[22] = read-out: Minimum inhibitory concentration (MIC), Eserichia coli HZ1308-1
[23] = read-out: Minimum inhibitory concentration (MIC), Eserichia coli SS1107A
[24] = read-out: Minimum inhibitory concentration (MIC), Riemerella anatipestifer SCAU03
[25] = strain WS, read-out: Minimum inhibitory concentration (MIC), Riemerella anatipestifer WS
[26] = strain SCAU03, read-out: Minimum inhibitory concentration (MIC), Riemerella anatipestifer SCAU03
[27] = read-out: Minimum inhibitory concentration (MIC), Haemophilus parasuis S5A
[28] = read-out: Minimum inhibitory concentration (MIC), Riemerella anatipestifer WS

| SMILES | MIC [2, 13] | MIC [2, 14] | MIC [3, 15] | MIC [3, 16] | MIC [4, 17] | MIC [4, 18] | MIC [5, 19] | MIC [5, 20] | MIC [6, 21] | MIC [7, 22] | MIC [7, 23] | MIC [8, 24] | MIC [8, 25] | MIC [6, 27] | further results |
| --- | --- | --- | --- | --- | --- | --- | --- | --- | --- | --- | --- | --- | --- | --- | --- |
| CO/N=C(\C(=O)N[C@@H]1C(=O)N2C(C(=O)O)=C(COC(C)=O)CS[C@H]12)c1csc(N)n1 [Cefotaxime, reference compound] | – | – | – | – | – | – | – | – | – | – | – | – | – | – | Death rate ([1]; 10 mg/kg weight intramuscular): 0%; Morbidity ([1]; 10 mg/kg weight intramuscular): 25% |
| CCC(C)c1cccc(=O)c(O)c1 (stereo not shown) [IST_009_008, 4-(sec-butyl)-2-hydroxycyclohepta-2,4,6-trienone] | 12.5 µg/mL (≈ 70.1 µM) | 12.5 µg/mL (≈ 70.1 µM) | 50 µg/mL (≈ 281 µM) | 50 µg/mL (≈ 281 µM) | 50 µg/mL (≈ 281 µM) | 25 µg/mL (≈ 140 µM) | 25 µg/mL (≈ 140 µM) | 25 µg/mL (≈ 140 µM) | 0.39 µg/mL (≈ 2.19 µM) | 25 µg/mL (≈ 140 µM) | 25 µg/mL (≈ 140 µM) | 12.5 µg/mL (≈ 70.1 µM) | 6.25 µg/mL (≈ 35.1 µM) | – | – |
| CCCCCCCCCCCCCCc1cccc(=O)c(O)c1 [IST_009_033, 2-hydroxy-4-tetradecylcyclohepta-2,4,6-trienone] | 50 µg/mL (≈ 157 µM) | 50 µg/mL (≈ 157 µM) | > 100 µg/mL | > 100 µg/mL | > 100 µg/mL | > 100 µg/mL | > 100 µg/mL | > 100 µg/mL | 50 µg/mL (≈ 157 µM) | > 100 µg/mL | > 100 µg/mL | – | 25 µg/mL (≈ 78.5 µM) | – | MIC [8, 26]: 100 µg/mL (≈ 314 µM) |
| CCCCc1cccc(=O)c(O)c1 [IST_009_019, 4-butyl-2-hydroxycyclohepta-2,4,6-trienone] | 12.5 µg/mL (≈ 70.1 µM) | 6.25 µg/mL (≈ 35.1 µM) | > 100 µg/mL | 25 µg/mL (≈ 140 µM) | 50 µg/mL (≈ 281 µM) | 50 µg/mL (≈ 281 µM) | 25 µg/mL (≈ 140 µM) | 25 µg/mL (≈ 140 µM) | 0.39 µg/mL (≈ 2.19 µM) | 25 µg/mL (≈ 140 µM) | 25 µg/mL (≈ 140 µM) | – | – | 0.2 µg/mL (≈ 1.12 µM) | – |
| CCCc1cccc(=O)c(O)c1 [IST_009_001, 2-hydroxy-4-propylcyclohepta-2,4,6-trienone] | 3.13 µg/mL (≈ 19.1 µM) | 3.13 µg/mL (≈ 19.1 µM) | 25 µg/mL (≈ 152 µM) | 25 µg/mL (≈ 152 µM) | 12.5 µg/mL (≈ 76.1 µM) | 6.25 µg/mL (≈ 38.1 µM) | 6.25 µg/mL (≈ 38.1 µM) | 12.5 µg/mL (≈ 76.1 µM) | 0.39 µg/mL (≈ 2.38 µM) | 12.5 µg/mL (≈ 76.1 µM) | 12.5 µg/mL (≈ 76.1 µM) | 12.5 µg/mL (≈ 76.1 µM) | – | 0.2 µg/mL (≈ 1.22 µM) | effect on diarrhea compared with colistin sulfate or IST_001_002 groups (in words) ([9]; 30 ppm test group): obviously better than that of colistin sulfate or IST_001_002 groups; Average daily diarrhea rate ([9]; weaned pigs, 10 days): 16% and 17%; diarrhea rate of the tested pigs (in words) ([9]; weaned pigs, added in feeds, 10 days): could obviously reduce the diarrhea rate; Average daily weight gain ([10]; 5 ppm mixed with feed): 37.75 g/d * bird and 36.93 g/d * bird and 33.52 g/d * bird; Average weight gain ([10]; 5 ppm mixed with feed): 516.79 g and 520.00 g and 547.21 g; Total consumption ([10]; 5 ppm mixed with feed): 61 kg and 58.85 kg and 55.12 kg; feed conversion efficiency ([10]; 5 ppm mixed with feed): 2.886 and 2.846 and 2.808; Average daily weight gain ([10]; 15 ppm mixed with feed): 36.94 g/d * bird and 37.5 g/d * bird and 34.53 g/d * bird; Average weight gain ([10]; 15 ppm mixed with feed): 517.17 g and 525.50 g and 523.38 g; Total consumption ([10]; 15 ppm mixed with feed): 58.03 kg and 57.61 kg and 57.84 kg; feed conversion efficiency ([10]; 15 ppm mixed with feed): 2.807 and 2.741 and 2.889; weight gain and feed conversion efficiency of the experimental broilers (in words) ([10]; in feed): could enhance the weight gain and the feed conversion efficiency; MIC ([11]; read-out: Minimum inhibitory concentration (MIC), Staphylococcus aureus PNB14): 12.5 µg/mL (≈ 76.1 µM); MIC ([11]; read-out: Minimum inhibitory concentration (MIC), Staphylococcus aureus SA10): 12.5 µg/mL (≈ 76.1 µM); antibacterial activities compared with the lead compound IST_001_002 (in words) [12]: better than those of the lead compound IST_001_002; Death rate ([1]; 10 mg/kg weight intramuscular): 0%; Morbidity ([1]; 10 mg/kg weight intramuscular): 40%; Death rate ([1]; 20 mg/kg weight intramuscular): 0%; Morbidity ([1]; 20 mg/kg weight intramuscular): 25%; MIC [8, 28]: 3.13 µg/mL (≈ 19.1 µM) |
| CC(C)c1cccc(=O)c(O)c1 [IST_001_002, 2-hydroxy-4-isopropyl-1-cycloheptatrienone, reference compound] | 6.25 µg/mL (≈ 38.1 µM) | 12.5 µg/mL (≈ 76.1 µM) | 50 µg/mL (≈ 304 µM) | 50 µg/mL (≈ 304 µM) | 25 µg/mL (≈ 152 µM) | 25 µg/mL (≈ 152 µM) | 25 µg/mL (≈ 152 µM) | 25 µg/mL (≈ 152 µM) | 0.78 µg/mL (≈ 4.75 µM) | 25 µg/mL (≈ 152 µM) | 25 µg/mL (≈ 152 µM) | – | – | – | Average daily diarrhea rate ([9]; weaned pigs, 10 days): 35% and 32%; MIC ([11]; strain PNB14, read-out: Minimum inhibitory concentration (MIC), Staphylococcus aureus PNB14): 25 µg/mL (≈ 152 µM); MIC ([11]; strain SA10, read-out: Minimum inhibitory concentration (MIC), Staphylococcus aureus SA10): 25 µg/mL (≈ 152 µM); MIC [8, 28]: 6.25 µg/mL (≈ 38.1 µM); MIC [8, 26]: 25 µg/mL (≈ 152 µM) |
| O=c1cccc(Cc2ccccc2)cc1O [IST_009_004, 4-benzyl-2-hydroxycyclohepta-2,4,6-trienone] | 12.5 µg/mL (≈ 58.9 µM) | 12.5 µg/mL (≈ 58.9 µM) | 6.25 µg/mL (≈ 29.4 µM) | 50 µg/mL (≈ 236 µM) | 50 µg/mL (≈ 236 µM) | 50 µg/mL (≈ 236 µM) | 25 µg/mL (≈ 118 µM) | 25 µg/mL (≈ 118 µM) | 0.78 µg/mL (≈ 3.67 µM) | 12.5 µg/mL (≈ 58.9 µM) | 25 µg/mL (≈ 118 µM) | 12.5 µg/mL (≈ 58.9 µM) | 6.25 µg/mL (≈ 29.4 µM) | 0.2 µg/mL (≈ 0.942 µM) | – |
